Consider ten molecules from PubChem BioAssay AID328 (DTP/NCI, 2004).

Values joined by “and” are separate entries in the source; they are usually repeats but may differ in a detail not shown here. Identical values can stand only once. Inconclusive results and toxic doses are left out.

The test system of this assay is BDF1 mice, P388 leukemia ip, median survival T/C. The assay is described as follows: NCI In Vivo Anticancer Drug Screen. Data for tumor model P388 Leukemia (intraperitoneal) in B6D2F1 (BDF1) mice. To be noted: endpoint: median survival time, higher = longer survival. In outline:
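Transplantable tumour in mice; compound vs vehicle dosing; survival scored; ratio of treated to control reported.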

The mark [1] stands for this setting: dose: 12.5 mg/kg/injection, schedule: Q04DX003 (ip), vehicle: saline with Tween-80.
Setting [2] is: dose: 50.0 mg/kg/injection, schedule: Q01DX009 (ip), vehicle: saline with Tween-80.
Where [3] appears, read: dose: 100.0 mg/kg/injection, schedule: Q01DX009 (ip), vehicle: saline with Tween-80.
[4] abbreviates: dose: 6.25 mg/kg/injection, schedule: Q01DX009 (ip), vehicle: saline with Tween-80.
Where [5] appears, read: dose: 12.5 mg/kg/injection, schedule: Q01DX009 (ip), vehicle: saline with Tween-80.
Setting [6] is: dose: 100.0 mg/kg/injection, schedule: Q01DX009 (ip), vehicle: saline.

For the molecule `CC1(C)N=C(N)N=C(N)N1c1ccc(CCCCc2cccc(S(=O)(=O)F)c2)c(Cl)c1`, the T/C reads like this: (dose: 1.0 mg/kg/injection, schedule: Q01DX009 (ip), vehicle: saline with Tween-80) 119 % of control; (dose: 1.32 mg/kg/injection, schedule: Q01DX009 (ip), vehicle: saline with Tween-80) 150 % of control; (dose: 2.0 mg/kg/injection, schedule: Q01DX009 (ip), vehicle: saline with Tween-80) 150 % of control; (dose: 3.0 mg/kg/injection, schedule: Q01DX009 (ip), vehicle: saline with Tween-80) 154 % of control; (dose: 4.0 mg/kg/injection, schedule: Q01DX009 (ip), vehicle: saline with Tween-80) 161 % of control; (dose: 8.0 mg/kg/injection, schedule: Q01DX009 (ip), vehicle: saline with Tween-80) 161 % of control and 170 % of control. Moreover, the T/C reads like this: (dose: 12.0 mg/kg/injection, schedule: Q01DX009 (ip), vehicle: saline with Tween-80) 170 % of control; under setting [1], 109 % of control; (dose: 18.0 mg/kg/injection, schedule: Q01DX009 (ip), vehicle: saline with Tween-80) 200 % of control.

For the molecule `CC(=O)Oc1c(Br)cc(Br)cc1-c1ccccc1`, the T/C is 92 % of control under setting [2]; 92 % of control under setting [3]; 92 % of control (dose: 200.0 mg/kg/injection, schedule: Q01DX009 (ip), vehicle: saline with Tween-80); 90 % of control (dose: 400.0 mg/kg/injection, schedule: Q01DX009 (ip), vehicle: saline with Tween-80).

`O=C(Cl)C1=C(c2ccccc2)C1c1ccccc1` (stereo not given): the T/C under setting [2] is 102 % of control and the T/C under setting [3] was 101 % of control.

Regarding `Clc1ccc(-c2ncc3cnccn23)cc1Cl`, the T/C reads like this: (dose: 0.78 mg/kg/injection, schedule: Q04DX003 (ip), vehicle: saline with Tween-80) 92 % of control; (dose: 1.56 mg/kg/injection, schedule: Q01DX009 (ip), vehicle: saline with Tween-80) 89 % of control; (dose: 1.56 mg/kg/injection, schedule: Q04DX003 (ip), vehicle: saline with Tween-80) 90 % of control; (dose: 3.12 mg/kg/injection, schedule: Q01DX009 (ip), vehicle: saline with Tween-80) 95 % of control; (dose: 3.12 mg/kg/injection, schedule: Q04DX003 (ip), vehicle: saline with Tween-80) 94 % of control; under setting [4], 95 % of control. Moreover, the T/C by setting is: (dose: 6.25 mg/kg/injection, schedule: Q04DX003 (ip), vehicle: saline with Tween-80) 100 % of control; under setting [5], 99 % of control; (dose: 25.0 mg/kg/injection, schedule: Q01DX009 (ip), vehicle: saline with Tween-80) 100 % of control; under setting [2], 100 % of control.

Turning to `CN(C)c1ccc(/C=C/c2ccnc3ccc(I)cc23)cc1`, the T/C runs as follows: under setting [4], 96 % of control; under setting [5], 119 % of control; under setting [2], 116 % of control.

Regarding `CC(/C=C/C1(C)C(C)CCC(=O)C1C)=C\Cc1c(O)c(Cl)c(C)c(C=O)c1O` (stereo not given), the T/C under setting [1] is 92 % of control and the T/C (dose: 25.0 mg/kg/injection, schedule: Q04DX003 (ip), vehicle: saline with Tween-80) is 90 % of control.

Consider `CC(C)CCCCCCCCOC(=O)c1ccccc1C(=O)OCCCCCCCCC(C)C`, for which the T/C by setting is: (dose: 100.0 mg/kg/injection, schedule: Q04DX003 (ip), vehicle: saline with Tween-80) 109 % of control; (dose: 200.0 mg/kg/injection, schedule: Q04DX003 (ip), vehicle: saline with Tween-80) 109 % of control; (dose: 400.0 mg/kg/injection, schedule: Q04DX003 (ip), vehicle: saline with Tween-80) 104 % of control.

Consider `NNc1cc(N)[nH]n1`, for which the T/C (dose: 12.5 mg/kg/injection, schedule: Q01DX009 (ip), vehicle: saline) was 106 % of control; the T/C (dose: 25.0 mg/kg/injection, schedule: Q01DX009 (ip), vehicle: saline) is 100 % of control; the T/C (dose: 50.0 mg/kg/injection, schedule: Q01DX009 (ip), vehicle: saline) is 100 % of control; the T/C under setting [6] was 93 % of control.

Take `COc1ccc(CNCCO)cc1`: the T/C was 108 % of control (dose: 50.0 mg/kg/injection, schedule: Q04DX003 (ip), vehicle: saline); 109 % of control under setting [6]; 100 % of control and 116 % of control (dose: 100.0 mg/kg/injection, schedule: Q04DX003 (ip), vehicle: saline); 90 % of control (dose: 200.0 mg/kg/injection, schedule: Q01DX009 (ip), vehicle: saline); 91 % of control (dose: 200.0 mg/kg/injection, schedule: Q04DX003 (ip), vehicle: saline); 111 % of control (dose: 400.0 mg/kg/injection, schedule: Q01DX009 (ip), vehicle: saline). The T/C (dose: 400.0 mg/kg/injection, schedule: Q04DX003 (ip), vehicle: saline) is 91 % of control and 95 % of control.

With `CC(C)(C)c1cc(CO)cc(C(C)(C)C)c1O`, the T/C by setting is: (dose: 100.0 mg/kg/injection, schedule: Q01DX009 (ip), vehicle: Klucel (hydroxypropylcellulose) (HPC)) 107 % of control; (dose: 100.0 mg/kg/injection, schedule: Q04DX003 (ip), vehicle: Klucel (hydroxypropylcellulose) (HPC)) 113 % of control; (dose: 200.0 mg/kg/injection, schedule: Q01DX009 (ip), vehicle: Klucel (hydroxypropylcellulose) (HPC)) 103 % of control; (dose: 200.0 mg/kg/injection, schedule: Q04DX003 (ip), vehicle: Klucel (hydroxypropylcellulose) (HPC)) 118 % of control; (dose: 400.0 mg/kg/injection, schedule: Q01DX009 (ip), vehicle: Klucel (hydroxypropylcellulose) (HPC)) 111 % of control; (dose: 400.0 mg/kg/injection, schedule: Q04DX003 (ip), vehicle: Klucel (hydroxypropylcellulose) (HPC)) 100 % of control.
